{"source": "patent US20160199351A1", "about": "“COMPOSITIONS AND METHODS FOR INHIBITING FUNGAL INFECTIONS” (priority 2015, published 2016)", "key": {"Histoplasma capsulatum": {"tested_on": "Histoplasma capsulatum", "assay_type": "cell-based", "details": "24-hour treatment"}, "Aspergillus fumigatus": {"tested_on": "Aspergillus fumigatus", "experiment": "Aspergillus fumigatus mycelia growth dose-response (MIC by linear regression)", "assay_type": "cell-based", "details": "for MIC: Aspergillus fumigatus, FIG. 2A dose-response, linear regression"}, "Trichophyton rubrum": {"tested_on": "Trichophyton rubrum", "experiment": "Trichophyton rubrum mycelia growth dose-response (MIC by linear regression)", "assay_type": "cell-based", "details": "for MIC: Trichophyton rubrum, FIG. 3 dose-response, linear regression"}, "Rhizopus oryzae": {"tested_on": "Rhizopus oryzae", "experiment": "MIC, CLSI M38-A2 broth dilution (Table 1)", "assay_type": "cell-based"}, "Lomentospora prolificans": {"tested_on": "Lomentospora prolificans", "experiment": "MIC, CLSI M38-A2 broth dilution (Table 1)", "assay_type": "cell-based", "details": "isolate LP1, 48 hours"}, "Blastomyces dermatitidis [1]": {"tested_on": "Blastomyces dermatitidis", "experiment": "MIC, macrodilution method (Table 1)", "assay_type": "cell-based", "details": "96 hours"}, "Fusarium sp.": {"tested_on": "Fusarium sp.", "experiment": "MIC (Table 5)", "assay_type": "cell-based", "details": "for MIC / MIC50: Fusarium; for MIC: read-out: MIC 100%"}, "Blastomyces dermatitidis [2]": {"tested_on": "Blastomyces dermatitidis", "experiment": "MIC (Table 6)", "assay_type": "cell-based", "details": "for MIC: read-out: MIC 100%"}, "C. parapsilosis": {"tested_on": "C. parapsilosis", "experiment": "MIC against Candida species (Table 4)"}, "[3]": {"details": "read-out: MIC, concentration resulting in 50% inhibition of mycelia growth"}, "[4]": {"details": "read-out: MIC, concentration resulting in 90% inhibition of mycelia growth"}}, "note": "Where two headings read alike, the source gives them in different places.", "data": [{"smiles": "NCC(=O)Nc1ccc(-n2nc(C(F)(F)F)cc2-c2ccc3c(ccc4ccccc43)c2)cc1", "note": "[AR-12, 2-amino-N-(4-(5-(phenanthren-2-yl)-3-(trifluoromethyl)-1H-pyrazol-1-yl)phenyl)acetamide]", "values": [{"measurement": "reduction of fungal viability", "setting": "Histoplasma capsulatum; then growth in absence of drug", "result": "about 1000 fold"}, {"measurement": "viability staining of yeasts", "setting": "Histoplasma capsulatum; ethidium bromide / fluorescein staining", "result": "loss of yeast viability"}, {"measurement": "MIC", "setting": "Aspergillus fumigatus; [3]", "result": 3.1, "unit": "µM"}, {"measurement": "MIC", "setting": "Aspergillus fumigatus; [4]", "result": 8.6, "unit": "µM"}, {"measurement": "concentration that effectively prevents growth", "setting": "Aspergillus fumigatus; stated for all three fungi", "result": "8 to 40", "unit": "µM"}, {"measurement": "MIC", "setting": "Trichophyton rubrum; [3]", "result": 4.5, "unit": "µM"}, {"measurement": "MIC", "setting": "Trichophyton rubrum; [4]", "result": 11.3, "unit": "µM"}, {"measurement": "concentration that effectively prevents growth", "setting": "Trichophyton rubrum; stated for all three fungi", "result": "8 to 40", "unit": "µM"}, {"measurement": "MIC 50%", "setting": "Rhizopus oryzae; isolate RO1, 24 hours", "result": 4, "unit": "gg/m1"}, {"measurement": "MIC 100%", "setting": "Rhizopus oryzae; isolate RO1, 24 hours", "result": 4, "unit": "gg/m1"}, {"measurement": "MIC 50%", "setting": "Rhizopus oryzae; isolate RO2, 24 hours", "result": 4, "unit": "gg/m1"}, {"measurement": "MIC 100%", "setting": "Rhizopus oryzae; isolate RO2, 24 hours", "result": 4, "unit": "gg/m1"}, {"measurement": "MIC 50%", "setting": "Rhizopus oryzae; isolate RO3, 24 hours", "result": 4, "unit": "gg/m1"}, {"measurement": "MIC 100%", "setting": "Rhizopus oryzae; isolate RO3, 24 hours", "result": 4, "unit": "gg/m1"}, {"measurement": "MIC 50%", "setting": "Lomentospora prolificans", "result": 2, "unit": "gg/m1"}, {"measurement": "MIC 100%", "setting": "Lomentospora prolificans", "result": 2, "unit": "gg/m1"}, {"measurement": "MIC 50%", "setting": "Blastomyces dermatitidis [1]; isolate BD1, macrodilution", "result": 2, "unit": "gg/m1"}, {"measurement": "MIC 100%", "setting": "Blastomyces dermatitidis [1]; isolate BD1, macrodilution", "result": 4, "unit": "gg/m1"}, {"measurement": "MIC 50%", "setting": "Blastomyces dermatitidis [1]; isolate BD2, macrodilution", "result": 1, "unit": "gg/m1"}, {"measurement": "MIC 100%", "setting": "Blastomyces dermatitidis [1]; isolate BD2, macrodilution", "result": 2, "unit": "gg/m1"}, {"measurement": "MIC 50%", "setting": "Blastomyces dermatitidis [1]; isolate BD3, macrodilution", "result": 1, "unit": "gg/m1"}, {"measurement": "MIC 100%", "setting": "Blastomyces dermatitidis [1]; isolate BD3, macrodilution", "result": 1, "unit": "gg/m1"}, {"measurement": "MIC", "setting": "Fusarium sp.; 24 h, isolate F-1, 24 hrs", "result": 2, "unit": "µg/mL"}, {"measurement": "MIC", "setting": "Fusarium sp.; 24 h, isolate F-2, 24 hrs", "result": 2, "unit": "µg/mL"}, {"measurement": "MIC", "setting": "Fusarium sp.; 24 h, isolate F-3, 24 hrs", "result": 2, "unit": "µg/mL"}, {"measurement": "MIC50", "setting": "Fusarium sp.; isolate F-1, 48/72 hrs", "result": 4, "unit": "µg/mL"}, {"measurement": "MIC", "setting": "Fusarium sp.; isolate F-1, 48/72 hrs", "result": 4, "unit": "µg/mL"}, {"measurement": "MIC", "setting": "Fusarium sp.; isolate F-2, 48/72 hrs", "result": 4, "unit": "µg/mL"}, {"measurement": "MIC", "setting": "Fusarium sp.; isolate F-3, 48/72 hrs", "result": 4, "unit": "µg/mL"}, {"measurement": "MIC50", "setting": "Fusarium sp.; isolate F-1, 24 hrs", "result": 2, "unit": "µg/mL"}, {"measurement": "MIC 50%", "setting": "Fusarium sp.; isolate F-2, 48/72 hrs", "result": 4, "unit": "µg/mL"}, {"measurement": "MIC 50%", "setting": "Fusarium sp.; isolate F-2, 24 hrs", "result": 2, "unit": "µg/mL"}, {"measurement": "MIC 50%", "setting": "Fusarium sp.; isolate F-3, 48/72 hrs", "result": 4, "unit": "µg/mL"}, {"measurement": "MIC 50%", "setting": "Fusarium sp.; isolate F-3, 24 hrs", "result": 2, "unit": "µg/mL"}, {"measurement": "MIC50", "setting": "Blastomyces dermatitidis [2]; isolate BD1, 72/192 hrs", "result": 0.25, "unit": "µg/mL"}, {"measurement": "MIC", "setting": "Blastomyces dermatitidis [2]; isolate BD1, 72/192 hrs", "result": 0.5, "unit": "µg/mL"}, {"measurement": "MIC50", "setting": "Blastomyces dermatitidis [2]; isolate BD2, 72/192 hrs", "result": 2, "unit": "µg/mL"}, {"measurement": "MIC", "setting": "Blastomyces dermatitidis [2]; isolate BD2, 72/192 hrs", "result": 2, "unit": "µg/mL"}, {"measurement": "MIC50", "setting": "Blastomyces dermatitidis [2]; isolate BD3, 72/192 hrs", "result": 1, "unit": "µg/mL"}, {"measurement": "MIC", "setting": "Blastomyces dermatitidis [2]; isolate BD3, 72/192 hrs", "result": 2, "unit": "µg/mL"}, {"measurement": "MIC50", "setting": "C. parapsilosis; 24 h, isolate CP-1, 24 hrs", "result": 2, "unit": "µg/mL"}, {"measurement": "MIC50", "setting": "C. parapsilosis; 24 h, isolate CP-2, 24 hrs", "result": 2, "unit": "µg/mL"}, {"measurement": "MIC50", "setting": "C. parapsilosis; 24 h, isolate CP-3, 24 hrs", "result": 2, "unit": "µg/mL"}, {"measurement": "MIC50", "setting": "C. parapsilosis; 24 h, isolate CP-4, 24 hrs", "result": 2, "unit": "µg/mL"}, {"measurement": "MIC50", "setting": "C. parapsilosis; 24 h, isolate CP-5, 24 hrs", "result": 2, "unit": "µg/mL"}, {"measurement": "MIC50", "setting": "C. parapsilosis; 24 h, isolate CP-6, 24 hrs", "result": 2, "unit": "µg/mL"}, {"measurement": "MIC50", "setting": "C. parapsilosis; 24 h, isolate CP-7, 24 hrs", "result": 2, "unit": "µg/mL"}, {"measurement": "MIC50", "setting": "C. parapsilosis; 24 h, isolate QC", "result": 2, "unit": "µg/mL"}, {"measurement": "MIC", "setting": "C. parapsilosis; 24 h, read-out: MIC 100%, isolate CP-1, 24 hrs", "result": 2, "unit": "µg/mL"}, {"measurement": "MIC", "setting": "C. parapsilosis; 24 h, read-out: MIC 100%, isolate CP-2, 24 hrs", "result": 4, "unit": "µg/mL"}, {"measurement": "MIC", "setting": "C. parapsilosis; 24 h, read-out: MIC 100%, isolate CP-3, 24 hrs", "result": 4, "unit": "µg/mL"}, {"measurement": "MIC", "setting": "C. parapsilosis; 24 h, read-out: MIC 100%, isolate CP-4, 24 hrs", "result": 4, "unit": "µg/mL"}, {"measurement": "MIC", "setting": "C. parapsilosis; 24 h, read-out: MIC 100%, isolate CP-5, 24 hrs", "result": 2, "unit": "µg/mL"}, {"measurement": "MIC", "setting": "C. parapsilosis; 24 h, read-out: MIC 100%, isolate CP-6, 24 hrs", "result": 4, "unit": "µg/mL"}, {"measurement": "MIC", "setting": "C. parapsilosis; 24 h, read-out: MIC 100%, isolate CP-7, 24 hrs", "result": 2, "unit": "µg/mL"}, {"measurement": "MIC", "setting": "C. parapsilosis; 24 h, read-out: MIC 100%, isolate QC, 24 hrs", "result": 2, "unit": "µg/mL"}, {"measurement": "MIC50", "setting": "C. parapsilosis; 48 h, isolate CP-1, 48 hrs", "result": 4, "unit": "µg/mL"}, {"measurement": "MIC50", "setting": "C. parapsilosis; 48 h, isolate CP-2, 48 hrs", "result": 4, "unit": "µg/mL"}, {"measurement": "MIC50", "setting": "C. parapsilosis; 48 h, isolate CP-3, 48 hrs", "result": 4, "unit": "µg/mL"}, {"measurement": "MIC50", "setting": "C. parapsilosis; 48 h, isolate CP-4, 48 hrs", "result": 4, "unit": "µg/mL"}, {"measurement": "MIC50", "setting": "C. parapsilosis; 48 h, isolate CP-5, 48 hrs", "result": 4, "unit": "µg/mL"}, {"measurement": "MIC50", "setting": "C. parapsilosis; 48 h, isolate CP-6, 48 hrs", "result": 4, "unit": "µg/mL"}, {"measurement": "MIC50", "setting": "C. parapsilosis; 48 h, isolate CP-7, 48 hrs", "result": 2, "unit": "µg/mL"}, {"measurement": "MIC50", "setting": "C. parapsilosis; 48 h, isolate QC", "result": 2, "unit": "µg/mL"}, {"measurement": "MIC", "setting": "C. parapsilosis; 48 h, read-out: MIC 100%, isolate CP-1, 48 hrs", "result": 4, "unit": "µg/mL"}, {"measurement": "MIC", "setting": "C. parapsilosis; 48 h, read-out: MIC 100%, isolate CP-2, 48 hrs", "result": 4, "unit": "µg/mL"}, {"measurement": "MIC", "setting": "C. parapsilosis; 48 h, read-out: MIC 100%, isolate CP-3, 48 hrs", "result": 4, "unit": "µg/mL"}, {"measurement": "MIC", "setting": "C. parapsilosis; 48 h, read-out: MIC 100%, isolate CP-4, 48 hrs", "result": 4, "unit": "µg/mL"}, {"measurement": "MIC", "setting": "C. parapsilosis; 48 h, read-out: MIC 100%, isolate CP-5, 48 hrs", "result": 4, "unit": "µg/mL"}, {"measurement": "MIC", "setting": "C. parapsilosis; 48 h, read-out: MIC 100%, isolate CP-6, 48 hrs", "result": 4, "unit": "µg/mL"}]}]}
